Data on 9 compounds can be found in ChEMBL document CHEMBL1128159, “Synthesis and evaluation of diacylhydrazines as inhibitors of the interleukin-1 converting enzyme (ICE)” (Bioorg Med Chem Lett, 1995).

In data set [1] the target is T1, Caspase-1 (Homo sapiens) (UniProt P29466).
T1 sequence (whole entry): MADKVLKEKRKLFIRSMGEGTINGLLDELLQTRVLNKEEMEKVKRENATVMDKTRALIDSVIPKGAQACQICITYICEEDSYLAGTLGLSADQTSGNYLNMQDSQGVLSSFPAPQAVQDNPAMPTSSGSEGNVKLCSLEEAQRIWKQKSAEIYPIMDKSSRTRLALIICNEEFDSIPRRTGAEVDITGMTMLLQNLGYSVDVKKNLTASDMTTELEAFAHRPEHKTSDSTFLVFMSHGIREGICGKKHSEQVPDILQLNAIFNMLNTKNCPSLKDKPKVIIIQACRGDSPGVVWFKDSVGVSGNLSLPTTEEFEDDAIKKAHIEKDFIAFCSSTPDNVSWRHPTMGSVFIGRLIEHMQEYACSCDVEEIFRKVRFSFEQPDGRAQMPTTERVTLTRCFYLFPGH
Kind of data set: Compound was tested for inhibition of IL-1 beta converting enzyme by measuring second order rate of inactivation.

Data set [2] in a line: Half life of compound in ICE assay buffer (1 mM glutathione) at […] degree C. Type of data set: ADME. To be noted: ICE assay buffer with 1 mM glutathione.
A short description of data set [3]: Half life of compound in ICE assay buffer (1 mM dithiothreitol) at 25 degree C. Type of data set: ADME. To be noted: ICE assay buffer with 1 mM dithiothreitol.
A short description of data set [4]: Half life of compound in ICE assay buffer (1 mM dithiothreitol) at 25 degree C (89% intact after 120 h). Type of data set: ADME. The following applies: ICE assay buffer with 1 mM dithiothreitol.
Data set [5] in a line: Half life of compound in ICE assay buffer (1 mM dithiothreitol) at 25 degree C (98% intact after 120 h). Type of data set: ADME. The following applies: ICE assay buffer with 1 mM dithiothreitol.

Where a SMILES comes first, the peptide text is derived from it. A value given as a limit tells only on which side of the number the result lay.

For the compound `CC(C)[C@H](NC(=O)OCc1ccccc1)C(=O)N[C@@H](C)C(=O)NN(CC(=O)O)C(=O)COC1=C(Cc2ccccc2)C(=O)OC1`, the second-order inactivation rate constant (kobs/[I]) in data set [1] is 120 M⁻¹ s⁻¹. On the same count and under the same terms, for `CC(C)[C@H](NC(=O)OCc1ccccc1)C(=O)N[C@@H](C)C(=O)NN(CC(=O)O)C(=O)CBr` the value was 1640 M⁻¹ s⁻¹.

By half-life is commonly meant the time in which the quantity being followed falls by half. Read a low half-life as rapid decline. As to `CC(C)[C@H](NC(=O)OCc1ccccc1)C(=O)N[C@@H](C)C(=O)N[C@@H](CC(=O)O)C(=O)COP(=O)(c1ccccc1)c1ccccc1`, in data set [2], the half-life was 0.96 h. Also, in data set [1], the second-order inactivation rate constant (kobs/[I]) is 118000 M⁻¹ s⁻¹.

`CC(C)[C@H](NC(=O)OCc1ccccc1)C(=O)N[C@@H](C)C(=O)N[C@@H](CC(=O)O)C(=O)CCl` (HELM PEPTIDE1{[O=C(OCc1ccccc1)[*:2]].V.A.D.[ClC[*:1]]}$$$$V2.0) gave a half-life in data set [3] of 0.25 h. `CC(C)[C@H](NC(=O)OCc1ccccc1)C(=O)N[C@@H](C)C(=O)NN(CC(=O)O)C(=O)COC(=O)c1c(Cl)cccc1Cl` gave a second-order inactivation rate constant (kobs/[I]) in data set [1] of 700 M⁻¹ s⁻¹.

As to `CC(C)[C@H](NC(=O)OCc1ccccc1)C(=O)N[C@@H](C)C(=O)NN(CC(=O)O)C(=O)CCl`, the half-life was 3.5 h in data set [2] and > 120 h in data set [4]. The same compound gave a second-order inactivation rate constant (kobs/[I]) in data set [1] of 27300 M⁻¹ s⁻¹.

Consider `CC(C)[C@H](NC(=O)OCc1ccccc1)C(=O)N[C@@H](C)C(=O)NN(CC(=O)O)C(=O)COc1cc(C(F)(F)F)nn1-c1ccccc1`, for which the second-order inactivation rate constant (kobs/[I]) in data set [1] was determined as 470 M⁻¹ s⁻¹.

For the compound `CC(C)[C@H](NC(=O)OCc1ccccc1)C(=O)N[C@@H](C)C(=O)NN(CC(=O)O)C(=O)COP(=O)(c1ccccc1)c1ccccc1`, the half-life in data set [2] is 130 h; in data set [5], > 120 h. Also, the second-order inactivation rate constant (kobs/[I]) in data set [1] was found to be 19400 M⁻¹ s⁻¹.

`CC(C)[C@H](NC(=O)OCc1ccccc1)C(=O)N[C@@H](C)C(=O)NC(CC(=O)O)C(=O)COC1=C(Cc2ccccc2)C(=O)OC1` (some centres undefined): the second-order inactivation rate constant (kobs/[I]) in data set [1] is 290000 M⁻¹ s⁻¹.
